Results published in patent US20210171904A1, “CELL CULTURE METHOD AND CELL CULTURE APPARATUS” (NIKKISO CO., LTD., priority 2018, published 2021).

Legend:
[1] = system: human pluripotent stem cells; experiment: Cell density of human pluripotent stem cells after 5 days culture in waste-added medium (cell counter); format: cell-based; conditions: ammonium chloride added
Procedure: (§1) Onto a 24-well plate (Corning cellBIND Surface: from Corning Incorporated), seeded were 1×10^3 human pluripotent stem cells, to which a medium for pluripotent stem cell (StemFit: from Ajinomoto Co. Inc.) was added, and then cultured. To the medium before 24 hours from the start of culture, a culture substrate (iMatrix-511; from Nippi, Inc.) was added so as to adjust the concentration to 0.5 μg/ml, and also ROCK inhibitor (Y-27632: from FUJIFILM Wako Pure Chemical Corporation) was added so as to adjust the concentration to 10 μM.
After the elapse of 5 days, the number of cells in each well was measured by using TC20 full-automatic cell counter (from Bio-Rad Laboratories, Inc.), to calculate cell density. Results are illustrated in FIG. 5.
Onto a 24-well plate (Corning cellBIND Surface: from Corning Incorporated), seeded were 1×10^3 human pluripotent stem cells, to which a medium for pluripotent stem cell (StemFit: from Ajinomoto Co. Inc.) was added, and then cultured. […]
After the elapse of 5 days, the number of cells in each well was measured by using TC20 full-automatic cell counter (from Bio-Rad Laboratories, Inc.), to calculate cell density. […]

[2] = system: human pluripotent stem cells; experiment: Optical microscope observation of cells on the 5th day of culture in waste-added medium; format: cell-based
Procedure: as §1
The individual cells on the 5th day of culture were observed under an optical microscope. FIG. 6 presents optical microphotographs of the cells cultured in the lactic acid-added medium.
as §1, with “μM. […]” for “μM.”

[3] = system: human pluripotent stem cells; experiment: Real-time PCR of undifferentiation/differentiation marker gene expression (Oct4, Nanog, T, Pax6, Fox2) on the 6th day of culture; format: cell-based; conditions: ammonia 2.5 mM
Procedure: mRNA was then extracted from each cell on the 6th day of culture, using RNeasy Mini Kit (from QIAGEN N.V.), and then purified. Next, cDNA was synthesized from the thus purified mRNA, by using QuantiTect Reverse Transcription Kit (from QIAGEN N.V.). By using each cDNA as a template, and by using Thermal Cycler Dice Real Time System I (from Takara Bio Inc.), expression levels of Oct4, Nanog, T, Pax6 and Fox2 genes were measured by real-time PCR.
Proportion of expression levels of the individual genes at the individual concentration levels of ammonia were calculated, on the basis of the expression level at an ammonia concentration of 0 mM. FIG. 10 is a chart summarizing relation between the ammonia concentration and the gene expression levels. […] This confirms that keeping of the ammonia concentration at lower than 2.5 mM is effective to keep the cell in the undifferentiated state. It was also confirmed that the ammonia-induced promotion of cell differentiation may be suppressed more reliably, by keeping the ammonia concentration at 1 mM or below.

[4] = pH of medium after addition of lactic acid (pH-uncorrected group); format: physicochemical

Row | pH of the medium ([4]; lactic acid concentration 5.0 mM) | pH of the medium ([4]; lactic acid concentration 7.5 mM) | pH of the medium ([4]; lactic acid concentration 10 mM) | pH of the medium ([4]; lactic acid concentration 15 mM) | Structure (SMILES) | ammonia concentration at which cell density sharply decreases [1] [mM] | ammonia concentration at which morphological changes of the cell were observed [2] [mM] | expression level of Pax6 gene (ectoderm differentiation marker) relative to level at 0 mM [3] | expression level of T gene (mesoderm differentiation marker) relative to level at 0 mM [3]
1 |  |  |  |  | N [ammonia] | ≥ 10.0 | ≥ 2.5 | nearly ten times | nearly ten times
2 | 6.9 | 6.8 | 6.7 | 6.5 | CC(O)C(=O)O (centres unmarked) [lactic acid] |  |  |  | 
